# Laboratory results reported in US20240240155A1, “Organoid-Derived Monolayers and Uses Thereof” (Hub Organoids IP B.V., priority 2021, published 2024).
# Target: T1, OCT2 (Homo sapiens, UniProt O15244)
# T1 construct: endogenous in cells; host or cells: human kidney organoid-derived monolayer (donor kidney-C)
# T1 sequence (O15244 1-555): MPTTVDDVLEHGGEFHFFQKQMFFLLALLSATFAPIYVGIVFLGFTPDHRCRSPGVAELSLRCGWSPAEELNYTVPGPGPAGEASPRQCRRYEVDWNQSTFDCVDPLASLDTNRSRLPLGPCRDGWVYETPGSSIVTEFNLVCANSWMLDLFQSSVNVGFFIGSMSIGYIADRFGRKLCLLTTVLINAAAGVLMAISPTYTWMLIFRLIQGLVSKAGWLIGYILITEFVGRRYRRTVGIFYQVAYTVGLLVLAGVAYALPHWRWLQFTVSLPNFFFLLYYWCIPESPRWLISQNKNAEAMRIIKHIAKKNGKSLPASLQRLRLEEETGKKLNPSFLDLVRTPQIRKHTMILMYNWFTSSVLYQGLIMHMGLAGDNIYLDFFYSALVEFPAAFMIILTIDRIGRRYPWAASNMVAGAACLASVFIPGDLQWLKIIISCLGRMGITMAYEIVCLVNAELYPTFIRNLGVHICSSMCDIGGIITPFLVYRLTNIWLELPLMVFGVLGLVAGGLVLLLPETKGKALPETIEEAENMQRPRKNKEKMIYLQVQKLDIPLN
# Experiment: Rhodamine transport assay, kidney-C monolayers
# Assay type: cell-based
# Settings: 1 μM, 30 mins; day 7
# Description: FIG. 28 illustrates fluorescence measurements for accumulated intracellular Rhodamine 123 for kidney-C cultures grown in KEM media, with or without addition of 1 uM decitabine (DAC) on day 2 after seeding, in the presence or absence of PSC833 (a specific P-gp inhibitor) and decynium-22 (a specific OCT2 inhibitor). A sample incubated with PBS only (without […]) was used as a negative control. RFU, relative fluorescence units.
# Rhodamine transport from the basolateral compartment into kidney monolayers grown in either the KEM or DAC conditions as described in Example 9 was measured on day 7 after seeding in the presence or absence of the P-gp inhibitor PSC-833 and/or OCT2 inhibitor Decynium-22 as follows: • 1. Remove media and rinse cells using PBS. • 2. Add fresh buffer under one of the following conditions (37° C.): • 1. 1 μM Decynium-22, 30 mins, • 2. 1 μM PSC-833, 30 mins, • 3. 1 μM Decynium-22 and 1 μM PSC-833, 30 mins, or • 4. Untreated Control, 30 mins. • 3. Add Rhodamine 123 at a final concentration 250 nM to the basolateral compartment and incubate for 30 minutes at 37° C. • 4. Analyse cellular accumulation of Rhodamine 123 using fluorescence (Excitation λ 490 nm, Emission λ 520 nm). • 5. Assess accumulation differences.
compound,measurement,value
CCN1/C(=C/c2ccc3ccccc3[n+]2CC)C=Cc2ccccc21.[I-] [Decynium-22],cellular accumulation of Rhodamine,decreased accumulation
